Measurements published in paper PMC8636460, “Pharmacological and Biophysical Characteristics of Picrotoxin-Resistant, δSubunit-Containing GABAA Receptors” (Frontiers in Synaptic Neuroscience, 2021).

How the values were obtained:
[1] = target: T1, α4β2δ GABAAR (human α4, rat β2, rat δ with N-terminal FLAG) (Rattus norvegicus (beta2, delta); Homo sapiens (alpha4), UniProt P18506+P48169+P63138, P18506:T285Y); assay: whole-cell patch clamp in transfected N2a cells, agonist concentration response, Hill fit; assay type: cell-based
T1 construct: gene GABRA4; free full subunits transiently transfected (cDNA α:β:δ 1:1:2) in mouse Neuro-2a cells

[2] = target: T2, α4β2δ GABAAR (human α4, rat β2, rat δ with N-terminal FLAG) (Rattus norvegicus (beta2, delta); Homo sapiens (alpha4), UniProt P18506+P48169+P63138); assay: as above; assay type: cell-based
T2 construct: gene GABRA4; free full subunits transiently transfected (cDNA α:β:δ 1:1:2) in mouse Neuro-2a cells
T2 sequence (P63138 26-474): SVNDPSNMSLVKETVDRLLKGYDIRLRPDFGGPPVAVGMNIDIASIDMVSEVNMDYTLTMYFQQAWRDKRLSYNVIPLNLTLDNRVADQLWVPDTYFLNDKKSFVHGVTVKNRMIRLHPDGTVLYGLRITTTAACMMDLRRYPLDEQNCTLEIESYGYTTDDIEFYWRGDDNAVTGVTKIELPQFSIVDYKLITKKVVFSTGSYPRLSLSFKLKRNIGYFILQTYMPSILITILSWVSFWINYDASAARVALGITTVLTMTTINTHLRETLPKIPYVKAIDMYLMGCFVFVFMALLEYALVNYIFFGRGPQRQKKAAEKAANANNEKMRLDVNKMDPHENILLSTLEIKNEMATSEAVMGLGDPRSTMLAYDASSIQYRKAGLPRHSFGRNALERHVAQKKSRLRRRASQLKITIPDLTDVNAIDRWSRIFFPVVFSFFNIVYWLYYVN
T2 sequence (P48169 36-554): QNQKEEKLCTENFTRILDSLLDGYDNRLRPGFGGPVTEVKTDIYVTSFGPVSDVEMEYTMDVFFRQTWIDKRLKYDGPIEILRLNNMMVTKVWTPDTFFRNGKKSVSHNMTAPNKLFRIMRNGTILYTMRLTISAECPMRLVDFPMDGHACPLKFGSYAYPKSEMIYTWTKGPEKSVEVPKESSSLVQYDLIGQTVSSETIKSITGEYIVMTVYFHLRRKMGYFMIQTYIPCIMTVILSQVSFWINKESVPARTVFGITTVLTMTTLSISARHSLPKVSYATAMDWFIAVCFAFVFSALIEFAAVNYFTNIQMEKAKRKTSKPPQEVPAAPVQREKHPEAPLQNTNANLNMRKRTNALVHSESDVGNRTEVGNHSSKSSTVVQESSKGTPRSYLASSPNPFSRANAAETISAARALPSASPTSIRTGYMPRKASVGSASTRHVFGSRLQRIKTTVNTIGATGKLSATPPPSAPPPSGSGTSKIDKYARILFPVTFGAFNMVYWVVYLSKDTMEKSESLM
T2 sequence (P18506 25-449): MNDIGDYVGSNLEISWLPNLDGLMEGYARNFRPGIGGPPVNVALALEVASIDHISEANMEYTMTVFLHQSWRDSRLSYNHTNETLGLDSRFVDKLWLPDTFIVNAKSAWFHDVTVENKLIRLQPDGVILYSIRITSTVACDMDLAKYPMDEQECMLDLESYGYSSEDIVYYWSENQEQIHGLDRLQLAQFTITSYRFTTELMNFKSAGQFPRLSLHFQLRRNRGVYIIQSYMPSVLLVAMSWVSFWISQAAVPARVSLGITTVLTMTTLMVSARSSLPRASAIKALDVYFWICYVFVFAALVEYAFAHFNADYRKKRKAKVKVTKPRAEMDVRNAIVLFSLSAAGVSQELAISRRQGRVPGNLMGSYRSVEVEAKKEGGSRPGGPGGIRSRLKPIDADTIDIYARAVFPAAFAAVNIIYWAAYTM

T1 sequence (P48169 36-554): as the sequence (P48169 36-554) above
T1 sequence (P63138 26-474): as the sequence (P63138 26-474) above

For `Oc1noc2c1CCNC2` [THIP, 4,5,6,7-tetrahydroisoxazolo[5,4-c]pyridin-3-ol], which EC50 [1] is on record?
The EC50 was 16.7 µM.

What about the EC50 [2] of the same compound?
The EC50 was 38.7 µM.
